Earlier results as cited in patent US20110251275A1, “OMEGA-3 FATTY ACIDS FOR REDUCTION OF LP-PLA2 LEVELS” (priority 2006, published 2011).

Tested on: Lp-PLA2
Details: for reduction of Lp-PLA2: Tsimihodimos et al. 2002, patients treated

SMILES	reduced Lp-PLA2 levels (O'Donoghue et al. 2006) [%]	reduction of Lp-PLA2
CC(C)c1c(C(=O)Nc2ccccc2)c(-c2ccccc2)c(-c2ccc(F)cc2)n1CC[C@@H](O)C[C@@H](O)CC(=O)O [atorvastatin]	20	28-42%
CC(C)OC(=O)C(C)(C)Oc1ccc(C(=O)c2ccc(Cl)cc2)cc1 [fenofibrate, 2-[4-(4-chlorobenzoyl)phenoxy]-2-methyl-propanoic acid, 1-methylethyl ester]	–	22-28%
